The subject of series [1] is K. pneumoniae. Put plainly: Infection model 1: treatment of K. pneumoniae-infected A549 lung cells. It is filed as cell-based. Conditions: at 8 μM, surviving bacterial colonies. As for the experimental part:
(§1) The number of surviving bacterial colonies after treatment with peptide is shown.
The peptide P14 was tested as an antibiotic against the treatment of K. pneumoniae-infected A549 lung cells.

Series [2] concerns B. subtilis NCIB 3610. Put plainly: Fluorescence microscopy of B. subtilis stained with HADA (peptidoglycan synthesis). Format: cell-based. The source says:
Scale bars represent 2 μm. BF are the bright light images.
Fluorescence microscopy of B. subtilis stained with HADA, showing newly synthesised peptidoglycan from control cells.

Series [3] relates to A. baumannii. It is filed as cell-based.
Series [4] deals with E. feacium. Format: cell-based.
Series [5] has as its system P. aeruginosa. It is filed as cell-based.
The test system of series [6] is A. baumannii. Put plainly: Infection model 2: mouse skin infection with A. baumannii. It is filed as in vivo. Conditions: A. baumannii infected mice, superficial abrasion. The method, then: as §1
Infection of the mice was induced by superficial abrasion and incubation with the bacterial culture.

In series [7] the test system is human blood. As to the kind of experiment: Haemolysis experiment with fresh blood from a healthy donor. It is filed as cell-based. The method, then:
(§2) FIGS. 3A and 3B show the viability of HCT116 cells in DMEM with 10% FBS and 1% penicillin/streptomycin (FIG. 3A). The haemolysis experiments were performed with fresh blood from a healthy donor. Both experiments were performed in three independent experiments.
(§3) This is therefore >65-fold higher than the minimum inhibitory concentration against B. subtilis. […] Consequently, the P14 peptide as an antibiotic offers a distinct concentration window for therapeutic use.
3) Haemolysis experiments using human blood from a healthy donor show a haemolytic concentration >50-fold above the minimum inhibitory concentration against B. subtilis.

Series [8] concerns K. pneumoniae. Format: cell-based.
For series [9], the system named is HCT116 cells. As to the kind of experiment: Viability of HCT116 cells (cytotoxicity). Format: cell-based. Particulars: CC50 (HCT116) over MIC (B. subtilis). As for the experimental part:
as §2, §3

Series [10] is described as follows: Viability of HCT116 cells (cytotoxicity). Format: cell-based. Conditions: human; HCT116 cells in DMEM with 10% FBS; read-out: cytotoxic concentration CC50. The method, then:
as §2, §3

The subject of series [11] is E. cloacae. Format: cell-based.
The subject of series [12] is E. coli. Put plainly: MIC against ESKAPE pathogens in Mueller-Hinton medium. It is filed as cell-based. Conditions: Gram-negative.
Series [13] concerns S. aureus. The description is as above. Format: cell-based. Particulars: Gram-positive.
A short description of series [14]: in vitro. Conditions: human, 30% human serum in RPMI medium. The method, then: The experiment was performed in RPMI medium with 30% human serum at 37° C. Aliquots of the solution were analysed by HPLC-MS and the relative content was determined using an internal standard (phenol). The experiment was performed in three independent experiments.
The test system of series [15] is Bacillus subtilis. As to the kind of experiment: Minimum inhibitory concentration (MIC) in Mueller-Hinton medium. Format: cell-based. Particulars: relative to Com2. As for the experimental part:
The experiments were performed in Mueller-Hinton medium in three independent experiments.
Analogously to P14, these amino acids have been incorporated into the parental sequence of Com2 and were partially tested on their antimicrobial activity against Gram-positive Bacillus Subtilis 3610 NCIB.

In series [16] the test system is S. pneumoniae. Format: cell-based.

Residues, ends and D or L forms follow the SMILES beside them.

With `CC(=O)Nc1ccc(C(=O)N[C@@H](CCCNC(=N)N)C(=O)N[C@@H](CCCNC(=N)N)C(=O)N[C@@H](Cc2c[n+](Cc3ccc4ccccc4c3)cn2Cc2ccc3ccccc3c2)C(=O)N[C@@H](Cc2c[n+](Cc3ccc4ccccc4c3)cn2Cc2ccc3ccccc3c2)C(=O)N[C@@H](CCCNC(=N)N)C(=O)N[C@@H](Cc2ccccc2)C(N)=O)cc1` [Peptide P14, Aba-RR-Hdn-Hdn-RF-CONH2], in series [1], the “inhibition of bacterial growth in infected A549 lung cells” value was “complete inhibition of bacterial growth”. The “HADA staining of newly synthesised peptidoglycan” value in series [2] was “inhibits bacterial polyglycan synthesis”. The MIC turned out to be 6.3 µM in series [3]; 0.8 µM in series [4]; 12.5 µM in series [5]; 12.5 µM in series [8]; 25 µM in series [11]; 25 µM in [12]. Besides, the MIC in series [13] was determined as 1.6 µM; in [16], 2.2 µM. In addition, the “potency in mouse skin infection compared to polymyxin B” value in series [6] is “can be compared with that of the commonly used polymyxin B”. Also, the “activity in mouse skin infection compared to control peptide P3” value in series [6] (surviving bacterial colonies) is reported as “higher activity than the control peptide P3”. Besides, in [7] (HC50 over MIC (B. subtilis)), the “haemolytic concentration relative to the MIC value” was above 50 fold. Moreover, the “haemolytic concentration HC50” value in series [7] (fresh blood from a healthy donor) is 38.62 ± 2.58 µM. The “cytotoxic concentration relative to MIC against B. subtilis” value in [9] is given as above 65 fold. Moreover, in series [10], the CC50 is 50.4 ± 4.48 µM. Moreover, the half-life in series [14] is above 840 min. Also, the “minimum inhibitory concentration (MIC) compared to the parent peptide (Com2)” value in series [15] is on record as above 24 fold.
Take `CN[C@H](CC(C)C)C(=O)N[C@H]1C(=O)N[C@@H](CC(N)=O)C(=O)N[C@H]2C(=O)N[C@H]3C(=O)N[C@H](C(=O)N[C@H](C(=O)O)c4cc(O)cc(O)c4-c4cc3ccc4O)[C@H](O)c3ccc(c(Cl)c3)Oc3cc2cc(c3O[C@@H]2O[C@H](CO)[C@@H](O)[C@H](O)[C@H]2O[C@H]2C[C@](C)(N)[C@H](O)[C@H](C)O2)Oc2ccc(cc2Cl)[C@H]1O` [vancomycin, reference compound]: the “HADA staining of newly synthesised peptidoglycan” value in series [2] is on record as “no HADA binding to the cell periphery is visible”.
`N=C(N)NCCC[C@H](NC(=O)[C@H](Cc1c[nH]c2ccccc12)NC(=O)[C@H](Cc1c[nH]c2ccccc12)NC(=O)[C@H](CCCNC(=N)N)NC(=O)[C@@H](N)CCCNC(=N)N)C(=O)N[C@@H](Cc1ccccc1)C(N)=O` [Com2, H2N-RRWWRF-CONH2, reference compound] (H-RRWWRF-NH2): the half-life in [14] is around 24 min.

Source of the values: US20250361272A1, “HISTIDINE-BASED UNNATURAL AMINO ACID, ITS PRODUCTION AND USE” (priority 2024, published 2025).
